Results: patent US8168656B2, “Indoleacetic acid and indenacetic acid derivatives as therapeutic agents with reduced gastrointestinal toxicity” (Vanderbilt University, priority 2009, dated 2012)
Substitutions are numbered along the chain they refer to.

Legend:
Type in all cases: biochemical, murine
mCOX-2^V349L = target: T1, mCOX-2^V349L (Mus musculus, UniProt Q05769, V335L); assay: Time-dependent IC50 COX inhibition assay
T1 construct: made in house; host or cells: Sf9 insect cells (baculovirus, pVL1393)
T1 sequence (Q05769 18-604 V335L): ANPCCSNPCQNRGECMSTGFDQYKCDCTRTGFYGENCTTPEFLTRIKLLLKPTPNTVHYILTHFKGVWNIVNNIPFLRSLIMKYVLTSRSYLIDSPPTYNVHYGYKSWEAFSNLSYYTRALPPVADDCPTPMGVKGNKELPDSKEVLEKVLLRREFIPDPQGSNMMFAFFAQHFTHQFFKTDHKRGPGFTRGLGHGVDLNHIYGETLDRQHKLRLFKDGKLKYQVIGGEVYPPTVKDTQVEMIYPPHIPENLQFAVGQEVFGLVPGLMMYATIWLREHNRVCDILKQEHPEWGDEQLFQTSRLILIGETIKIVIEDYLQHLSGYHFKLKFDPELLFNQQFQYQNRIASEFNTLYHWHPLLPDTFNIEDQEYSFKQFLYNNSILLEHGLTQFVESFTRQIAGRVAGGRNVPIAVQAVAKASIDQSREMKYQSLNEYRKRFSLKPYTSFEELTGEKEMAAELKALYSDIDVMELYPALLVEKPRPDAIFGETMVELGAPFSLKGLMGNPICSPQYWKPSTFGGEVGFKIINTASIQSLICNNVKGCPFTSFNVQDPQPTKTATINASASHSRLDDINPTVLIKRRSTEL
Protocol: These mutated genes were used to assemble baculoviral constructs for large-scale expression in Sf9 cells. Purification of the expressed COX-2 protein was performed through traditional cellular fractionation and classical column chromatography. Activity or inhibition assays were performed in 100 mM Tris-HCl buffer containing 500 μM phenol, with hematin-reconstituted protein. Quantification of cyclooxygenase activity was performed by monitoring substrate (arachidonate or oxygen) consumption in a thermostatted cuvette at 37° C. using a polarographic electrode with a 5300 oxygen monitor (Yellow Springs Instrument Co. Inc., Yellow Springs, Ohio, United States of America). All inhibitors and substrates were solubilized in dimethyl sulfoxide (DMSO). Activity or inhibition assays were performed in 100 mM Tris-HCl buffer containing 500 μM phenol, with hematin-reconstituted protein. Maximal reaction velocity data were obtained from the linear portion of the oxygen uptake curves, and the data were analyzed by nonlinear regression with Prism 4.0 (GraphPad Software, San Diego, Calif., United States of America).
Time-dependent inhibition reactions were performed by pre-incubating the inhibitor and enzyme for 17 minutes at 25° C., followed by 3 minutes at 37° C. prior to the addition of 50 μM [1-^14C]-AA for 30 seconds at 37° C. Assays were terminated and analyzed for substrate consumption by thin layer chromatography as previously described (Kalgutkar et al., 2000a).
Maximal reaction velocity data were obtained from the linear portion of the oxygen uptake curves, and the data were analyzed by nonlinear regression. Instantaneous inhibition assays were performed with substrate and inhibitor added prior the initiation of the reaction by addition of protein. Time-dependent screening assays were performed by pre-incubating the inhibitor and enzyme for 17 minutes at 25° C., followed by 3 minutes at 37° C. prior to the addition of 50 μM [1-^14C]-arachidonic acid (AA) for 30 seconds at 37° C.
Assays were terminated and analyzed for substrate consumption by thin layer chromatography. […] Time-dependent COX inhibition reactions were pre-incubated at 37° C. for varying lengths of time (0-30 minutes) with various concentrations of inhibitor. All reactions were performed with [1-^14C]-AA for 30 seconds at 37° C.; reactions were terminated and analyzed as described above.
The COX reaction was allowed to proceed for 30 seconds before termination.

wild type mCOX-2 = target: T2, wild type mCOX-2 (Mus musculus, UniProt Q05769); assay: Activity recovery assay (reversibility of COX inhibition); conditions: 10 μM inhibitor, 50 μM AA
T2 construct: made in house; host or cells: Sf9 insect cells (baculovirus, pVL1393)
T2 sequence (Q05769 18-604): T1 sequence (Q05769 18-604 V335L) with L318V
Protocol: (§1) The reversibility of the second step in equation (1) could be directly evaluated by the amount of enzyme activity recovered after a prolonged incubation time with substrate. […] The enzymes were pre-incubated for 20 minutes with DMSO or 10 μM INDO, prior to the addition of 50 μM AA. After addition of AA, the oxygenation reactions were allowed to proceed for varying lengths of time. As the reaction time increased, the extent of inhibition decreased if INDO binding was reversible. The time course for recovery of AA oxygenation was fit to a single exponential (FIG. 3A).
(§2) The reversibility of DM-INDO inhibition was evaluated similarly to INDO using the activity recovery assay (FIG. 3). The experiments and analysis were performed as described above.

mCOX-2^V349I = target: T3, mCOX-2^V349I (Mus musculus, UniProt Q05769, V335I); assay: as above; conditions: 10 μM inhibitor, 50 μM AA
T3 construct: made in house; host or cells: Sf9 insect cells (baculovirus, pVL1393)
T3 sequence (Q05769 18-604 V335I): T1 sequence (Q05769 18-604 V335L) with L318I
Protocol: as §1, §2

SMILES: COc1ccc2c(c1)c(CC(=O)O)cn2C(=O)c1ccc(Cl)cc1 [DM-INDO, 2-Des-methylindomethacin]
- inhibition in the time-dependent IC50 assay (mCOX-2^V349L): less than 20%
- IC50 (mCOX-2^V349L; 20 min pre-incubation, then 50 μM AA for 30 s): > 16 µM
- K−2^b (rate constant determined by reversible inhibition) (wild type mCOX-2): 0.023 ± 0.001 s⁻¹
- K−2^b (rate constant determined by reversible inhibition) (mCOX-2^V349I): 0.015 ± 0.005 s⁻¹
